Results: patent US20020137901A1, “Synthesis, and photodynamic therapy-mediated anti-cancer, and other uses of chlorin e6-transferrin” (priority 2001, published 2002)

How the values were obtained:
[1] = test system: Rat MTLn3 mammary adenocarcinoma cells; test: Low serum growth assay; assay type: cell-based; conditions: αMEM 0.3% FBS, increasing levels of protein, four days
Description: FIG. 2. Effect of chorin e6 on the growth of Rat MTLn3 mammary adenocarcinoma cells. Cells were plated at 2,000 cells/well in 96 well plates in ∝MEM containing 5% FBS. One day after plating, media was changed to ∝MEM containing 0.3% FBS. Increasing levels of human holo-Tf (Native Tf) or human Ce6-Tf (both in PBS) were added to respective wells, in the amount indicated. Four days later, cells were quantitated using a crystal violet stain assay, where A590 correlates with cell number. A: an image of the crystal violet stained plate used in the assay is shown. B: A plot of the absorbances from A. Cell number and is seen to rise as the cells are exposed to increasing levels of native human Tf.
Growth assays: Rat MTLn3 mammary adenocarcinoma cells were plated at 2,000 cells/well in 96 well plates in ∝MEM containing 5% FBS. One day after plating, media was changed to ∝MEM containing 0.3% FBS. Increasing levels of human holo-Tf or human Ce6-Tf (both in PBS) were added to respective wells. Four days later, cells were quantitated using a crystal violet stain assay.

transferrin receptor = molecular target: T1, transferrin receptor (Rattus norvegicus, UniProt Q99376); test: Competition of FITC-Tf binding to cell surfaces (Western blot detection); conditions: competitor 1 mg/ml, FITC-Tf 100 μg/ml, 4° C., 2 h
T1 construct: endogenous in cells; host or cells: Rat MTLn3 mammary adenocarcinoma cells (intact monolayers at 4 °C)
T1 sequence (Q99376 whole entry): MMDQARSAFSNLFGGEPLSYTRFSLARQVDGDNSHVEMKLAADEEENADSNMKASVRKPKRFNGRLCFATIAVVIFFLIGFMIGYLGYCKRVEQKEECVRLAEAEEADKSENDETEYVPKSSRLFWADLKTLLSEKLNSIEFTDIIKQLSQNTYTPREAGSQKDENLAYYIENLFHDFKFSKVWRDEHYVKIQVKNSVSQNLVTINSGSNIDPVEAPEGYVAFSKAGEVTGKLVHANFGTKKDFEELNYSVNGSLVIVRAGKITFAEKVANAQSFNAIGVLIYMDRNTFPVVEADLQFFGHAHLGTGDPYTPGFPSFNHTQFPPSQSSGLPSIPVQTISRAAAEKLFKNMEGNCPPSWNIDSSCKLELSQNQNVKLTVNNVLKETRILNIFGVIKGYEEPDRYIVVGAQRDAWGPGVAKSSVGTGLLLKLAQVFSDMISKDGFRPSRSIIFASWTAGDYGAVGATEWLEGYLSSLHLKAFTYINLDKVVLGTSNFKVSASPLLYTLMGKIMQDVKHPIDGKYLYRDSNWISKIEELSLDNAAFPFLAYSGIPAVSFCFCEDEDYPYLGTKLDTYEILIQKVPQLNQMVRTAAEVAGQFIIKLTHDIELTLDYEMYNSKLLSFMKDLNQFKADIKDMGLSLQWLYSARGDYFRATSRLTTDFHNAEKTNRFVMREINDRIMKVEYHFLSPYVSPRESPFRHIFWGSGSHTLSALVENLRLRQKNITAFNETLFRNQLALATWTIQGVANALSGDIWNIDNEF
Description: FIG. 4. Competition of FITC-Tf binding to cell surfaces by Ce6-Tf. Transferrin solvent, human Ce6-Tf, or native human Tf were added to Rat MTLn3 mammary adenocarcinoma cell monolayers equilibrated to 4° C. The final concentration of both transferrins was 1 mg/ml. FITC- human Tf was then added to all wells at 100 μg/ml. After a 2 h incubation, cells were washed, lysed, electrophoresed, blotted, and examined for FITC content by incubation with anti-FITC and an HRP-conjugated second antibody, followed by ECL. A strong band at 70,000 Kd was seen from cell lysates which received FITC-Tf only (lanes 4 and 5), indicating FITC-Tf binding to the cells. […] Lanes 1-3 were loaded with known amounts of pure FITC-Tf, for standardization. An image of the ECL X-ray film is shown.
Competition binding: This measures the ability of a material to inhibit the binding of FITC-transferrin to cell surfaces. FITC-Tf bound to the cells is detected by Western blotting of cell lysates and specific antibody-based detection of FITC in those. Rat MTLn3 mammary adenocarcinoma cells were grown to confluence in 12 well plates using media consisting of ocMM containing 5% v/v fetal bovine serun (FBS). […] Lysate protein was determined using the BCA assay (Pierce Chemical). […] The blot was blocked and FITC-TF was detected by treatment with rabbit anti-FITC then with anti-rabbit IG-HRP followed by ECL using an HRP substrate.

MTLn3 cells [2] = test: Cell killing assay, protocol B (serum-containing, one-day exposure); assay type: cell-based, rat
Description: (§1) FIG. 6. […] This was a one-day exposure, serum-containing assay performed using protocol B described in the cell killing section. Cells were plated in 24 well plates and grown to confluency. On day one, media was changed and increasing levels of Ce6-Tf were added to test wells to a final concentration from 7.5 to 30 ug/ml. Native Tf was added to control wells at 30 ug/ml. On day 2, media was changed to that without added Ce6-Tf or Tf. On days 2, 3, and 4, cells were exposed to light from an X-ray film box for 15 min. Media was changed each day. On day five, all cells were fixed, stained, and quantitated using the crystal violet stain assay. Stained cell numbers were evaluated using a Bio-Rad Multi-imager. Images of the stained plates are shown in A and B. The results of image analysis are shown in C and D, where ODU/mm2 correlates with cell number.
(§2) FIG. 8. A: Effect of Ce6 alone on the viability of Rat MTLn3 cells. Cells were tested as per method B outlined in the cell killing procedure description. Confluent cells in ∝MEM containing 5% FBS were exposed to the indicated concentrations of Ce6, Ce6-Tf, or Tf alone. One day later, media was changed to that without added Ce6-Tf or Tf, and all cells were exposed to light for 15 min. This was repeated on days two and three. Cells were then fixed and stained with Coomassie blue. An image of the stained wells is shown. […] B: Effect of excess Tf on the killing effect of Ce6-Tf Cells were set up similarly as above, except that treatments consisted of Ce6-Tf, or Ce6-Tf in conjunction with 500 or 1,000 μg/ml native Tf. Light exposure, media changes, and cell staining were carried out as in A. An image of the stained wells is shown.
(§3) B: Serum-containing, one day exposure assays. For these, serum was maintained, to emulate in vivo conditions where excess endogenous normal transferrin would be present. In addition, the Ce6-Tf exposure was limited to I day to emulate a one time Ce6-Tf injection. Target cells were grown to confluence in 24 well plates. On the day of the assay, media in all wells was replaced with 1 ml of fresh serum-containing media and increasing levels of Ce6-Tf added to test wells. Native human holo-Tf was added, at the highest Ce6-Tf dose, to control wells. One day after Tf addition, media in all plates was changed to normal culture media (without Ce6Tf).
With both assay methods, two plates for each line to be tested were plated and treated identically. One day after Ce6-Tf addition, test plates were exposed to the light from an X-ray film box for 15 min.: the box was placed horizontally and the culture plates placed directly on the cover glass. The parallel plate from a given line was kept in the dark. The light treatment was repeated for 3 days. Media was changed (with [A] or without [B] added Ce6-Tf ) each day, to maintain cell viability. On the fourth day, the cells were quantitated using a crystal violet stain assay: wells were drained and washed 4 times with 2 ml PBS; cells were fixed with 1 ml 5% v/v glutaraldehyde (in PBS) at 25° C. for 20 min.; wells were washed 4 times with 2 ml distilled water and stained with 1 ml of a 1:1 (v:v) mixture of 0.2% (w/v) crystal violet and 100 mM CAPS (pH 9.0). Wells were drained and washed 4 times with 2 ml distilled water. After drying, cell density was determined using a Bio-Rad Multiimager, where ODU/mm2 correlates with cell number.
Effect of Ce6 alone: To determine if Ce6 alone, if added in appropriate concentrations, would induce cell death. […]

MTLn3 cells [3] = test: Transferrin competition of cell killing; assay type: cell-based, rat; conditions: MTLn3, 30 ug/ml Ce6Tf plus 500 or 1,000 μg/ml native Tf, light
Description: as §2
Transferrin competition of cell killing: These were performed to ensure that Ce6-Tf's cell killing effect was due to the function of the transferrin ligand: that the light-induced killing effect could be neutralized with excess native Tf Method B. from above was used. Confluent cultures of MTLn3 cells in 24 well plates were treated with 30 ug/ml of Ce6Tf. […] Light-induced killing assays were continued and cells quantitated as stated above in method B.

[4] = test system: Rat MTLn3 mammary adenocarcinoma cells; test: Cell killing assay, protocol A (serum-free, continuous exposure); assay type: cell-based; conditions: 1.25 to 5.0 μg/ml
Description: FIG. 5. […] This was a continuous exposure, serum-free assay performed using protocol A described in the cell killing section. Cells were plated in 24 well plates and grown to confluency in ∝MEM containing 5% v/v FBS. On day one, media was changed to ∝MEM only and increasing levels of Ce6-Tf were added to test wells to a final concentration from 1.25 to 5.0 μg/ml. Native Tf was added to control wells at 5.0 μg/ml. On days 2, 3, and 4, cells were exposed to light from an X-ray film box for 15 min. Media and all Tf was changed each day. On day five, all cells were quantitated using the crystal violet stain assay. Images of the stained plates are shown in A. Stained cell numbers were evaluated using a Bio-Rad Multi-imager. The results of image analysis are shown in B, where ODU/mm2 correlates with cell number. […]
(§4) With both assay methods, two plates for each line to be tested were plated and treated identically. […] On the fourth day, the cells were quantitated using a crystal violet stain assay: wells were drained and washed 4 times with 2 ml PBS; cells were fixed with 1 ml 5% v/v glutaraldehyde (in PBS) at 25° C. for 20 min.; wells were washed 4 times with 2 ml distilled water and stained with 1 ml of a 1:1 (v:v) mixture of 0.2% (w/v) crystal violet and 100 mM CAPS (pH 9.0). […] After drying, cell density was determined using a Bio-Rad Multiimager, where ODU/mm2 correlates with cell number.

[5] = test system: Human MCF7 breast cancer cells; test: Cell killing assay, protocol B (serum-containing, one-day exposure); assay type: cell-based; conditions: MCF7, 7.5 to 30 ug/ml
Description: FIG. 7. […] Cells were plated in 24 well plates and grown to confluency. On day one, media was changed and increasing levels of Ce6-Tf were added to test wells to a final concentration from 7.5 to 30 ug/ml. Native Tf was added to control wells at 30 ug/ml. On day 2, media in all wells was changed to that without added Ce6-Tf or Tf On days 2, 3, and 4, cells were exposed to light from an X-ray film box for 15 min. Media was changed each day. On day five, all cells were fixed, stained, and quantitated using the crystal violet stain assay. Stained cell numbers were evaluated using a Bio-Rad Multi-imager. Images of the stained plates are shown in A. The results of image analysis are shown in B, where ODU/mm2 correlates with cell number. […]
as §4

NRK cells = test: as above; assay type: cell-based, rat
Description: as §1, §3, §4

Substance	Effect on cell growth (cell number, crystal violet A590) [1]	Competition of FITC-Tf binding to cell surfaces (transferrin receptor)	Cell killing effect of Ce6 alone with light (MTLn3 cells [2]; MTLn3, method B, free Ce6 4.3 uM (2.5 μg/ml), light 15 min on three days)	Killing effect of Ce6-Tf in presence of excess native Tf (MTLn3 cells [3])	Cell killing with light exposure (cell number, ODU/mm2) ([4]; light 15 min on days 2, 3, 4)	Cell numbers, plates kept in the dark ([4]; no light)	Change in cell numbers at the 15 ug/ml dose with light (MTLn3 cells [2]; MTLn3, 15 ug/ml, light)	Cell numbers, plates maintained in the dark (MTLn3 cells [2]; MTLn3, 7.5 to 30 ug/ml, no light)	Cell killing with light exposure (cell number, ODU/mm2) (MTLn3 cells [2]; MTLn3, 7.5 to 30 ug/ml, one-day exposure, light 15 min on days 2, 3, 4)	Light-induced cell death (MTLn3 cells [2]; initially present at 0.43 uM (30 ug/ml))	Cell numbers, plates kept in the dark ([5]; no light)	Cell killing with light exposure (cell number, ODU/mm2) ([5]; one-day exposure, light 15 min on days 2, 3, 4)	Change in cell numbers at the 15 ug/ml dose with light (NRK cells; 15 ug/ml, light)	Cell numbers, plates maintained in the dark (NRK cells; 7.5 to 30 ug/ml, no light)	Cell killing with light exposure (cell number, ODU/mm2) (NRK cells; 7.5 to 30 ug/ml, one-day exposure, light 15 min on days 2, 3, 4)
Native Tf: Un-conjugated iron-saturated human transferrin (Sigma Chemical), used as control	seen to rise	competed out the FITC-Tf	–	–	–	–	–	–	–	–	–	–	–	–	–
chlorin e6 [Ce6, reference compound]	–	–	no cell killing effect	–	–	–	–	–	–	–	–	–	–	–	–
chlorin e6-transferrin [Ce6-Tf]	similar, albeit slightly lower rise	competed out the FITC-Tf	–	diminished the killing effect	light-dependent killing	no loss of cell numbers	showed a decrease in cell numbers	no loss of cell numbers	light-dependent killing	very active	no loss of cell numbers	light-dependent killing	did not	no loss of cell numbers	light-dependent killing
